Reference: patent EP4725957A1, “GROUP OF CYCLIC ALKALINE LIPOPEPTIDE COMPOUNDS, AND PREPARATION METHOD THEREFOR AND USE THEREOF” (Institute of Medicinal Biotechnology, Chinese Academy of …, priority 2023, dated 2024)
≈ marks a conversion by molar mass, not a printed value. Numbered stars: 1 amine (or outer) side, 2 acyl side, 3 side chain; on linkers, the order of the positions; unused ones are H or OH. Bridge positions count the residues as written; N and C are the ends. Square brackets hold non-standard residues; d marks the D form. Peptide text beside a SMILES is read from it. * marks the point of attachment. X3 = O=C([C@@H](Cc1ccc(CS(=O)(=O)O)cc1)N[*:1])[*:2]; Heptanoyl(6-Me) = CC(C)CCCCC(=O)*; Sulfomethyl = O=S(=O)(O)C*; dOrn = NCCC[C@@H](N)C(=O)O; Nonanoyl = CCCCCCCCC(=O)*; Heptanoyl = CCCCCCC(=O)*; Octanoyl = CCCCCCCC(=O)*; Orn = NCCC[C@H](N)C(=O)O; dDap = NC[C@@H](N)C(=O)O; Dab = NCC[C@H](N)C(=O)O; Dap = NC[C@H](N)C(=O)O

Experiments:
Assay type in all cases: cell-based
[1] = system: Klebsiella pneumoniae KPN+19-15; conditions: KPN+19-15
Outline: (§1)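 In this CLSI-based assay, serially halved compound (final 64–0.03 mg/L) was exposed to (2-4) × 10^5 CFU/mL bacteria in MH broth at 35-37°C for 16-20 h. The readout was the MIC.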

[2] = system: Pseudomonas aeruginosa PAE19-3; conditions: PAE19-3
Outline: as §1

[3] = system: Acinetobacter baumannii ABA19-1; conditions: ABA19-1
Outline: as §1

[4] = system: Escherichia coli ATCC BAA-2340 (KPC); conditions: ATCC BAA-2340
Outline: as §1

[5] = system: Klebsiella pneumoniae ATCC BAA-1705 (KPC); conditions: ATCC BAA-1705
Outline: as §1

[6] = system: Pseudomonas aeruginosa ATCC 27853; conditions: ATCC 27853
Outline: as §1

[7] = system: Escherichia coli ATCC BAA-2523; conditions: ATCC BAA-2523
Outline: as §1

[8] = system: Acinetobacter baumannii NCTC 13304 (OXA-27); conditions: NCTC 13304
Outline: as §1

[9] = Nephrotoxicity assay: in vitro cytotoxicity of HK-2 cells by CCK-8 assay; conditions: human, HK-2 cells (human renal), 72 h incubation with drug-containing medium
Outline: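 Compounds in sterile water, diluted to final 500, 250, 200, 100, 50, 25 and 12.5 µg/mL, were applied for 72 h to human HK-2 kidney cells. Absorbance at 450 nm after 3 h CCK-8 gave viability against untreated wells, and IC50 came from logarithmic regression; three replicates.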

SMILES	MIC [1] [µg/mL]	MIC [2] [µg/mL]	MIC [3] [µg/mL]	MIC [4] [µg/mL]	MIC [5] [µg/mL]	MIC [6] [µg/mL]	MIC [7] [µg/mL]	MIC [8] [µg/mL]	IC50 at 72 h [9] [µg/mL]
CC(C)CCCCC(=O)N[C@@H](CCN)C(=O)N[C@H](C(=O)N[C@H](CN)C(=O)N[C@H]1CCNC(=O)[C@H]([C@@H](C)O)NC(=O)[C@H](CCN)NC(=O)[C@H](CCN)NC(=O)[C@H](CC(C)C)NC(=O)[C@@H](Cc2ccccc2)NC(=O)[C@H](CCN)NC1=O)[C@@H](C)O [Compound 32, 6-methylheptanoyl-Dab-Thr-D-Dap-ring(4-10)[Dab-Dab-D-Phe-Leu-Dab-Dab-Thr]] ({Heptanoyl(6-Me)}-[Dab]T[dDap][Dab][Dab][dF]L[Dab][Dab]T; lactam 4-C)	0.03 (≈ 0.0255 µM)	0.25 (≈ 0.213 µM)	0.03 (≈ 0.0255 µM)	0.03 (≈ 0.0255 µM)	0.03 (≈ 0.0255 µM)	0.03 (≈ 0.0255 µM)	0.03 (≈ 0.0255 µM)	0.03 (≈ 0.0255 µM)	325 ± 11.7 (≈ 277 µM)
CC(C)CCCCC(=O)N[C@@H](CCN)C(=O)N[C@H](C(=O)N[C@@H](CCN)C(=O)N[C@H]1CCNC(=O)[C@H]([C@@H](C)O)NC(=O)[C@H](CCN)NC(=O)[C@H](CCN)NC(=O)[C@H]([C@@H](C)O)NC(=O)[C@@H](Cc2ccccc2)NC(=O)[C@H](CCN)NC1=O)[C@@H](C)O [Compound 17, 6-methylheptanoyl-Dab-Thr-Dab-ring(4-10)[Dab-Dab-D-Phe-Thr-Dab-Dab-Thr]] ({Heptanoyl(6-Me)}-[Dab]T[Dab][Dab][Dab][dF]T[Dab][Dab]T; lactam 4-C)	≤0.03	0.5 (≈ 0.425 µM)	0.5 (≈ 0.425 µM)	≤0.03	0.5 (≈ 0.425 µM)	0.5 (≈ 0.425 µM)	0.06 (≈ 0.051 µM)	0.25 (≈ 0.212 µM)	> 500
CC(C)CCCCC(=O)N[C@@H](CCN)C(=O)N[C@H](C(=O)N[C@H](CCCN)C(=O)N[C@H]1CCNC(=O)[C@H]([C@@H](C)O)NC(=O)[C@H](CCN)NC(=O)[C@H](CCN)NC(=O)[C@H](CC(C)C)NC(=O)[C@@H](Cc2ccccc2)NC(=O)[C@H](CCN)NC1=O)[C@@H](C)O [Compound 42, 6-methylheptanoyl-Dab-Thr-D-Orn-ring(4-10)[Dab-Dab-D-Phe-Leu-Dab-Dab-Thr]] ({Heptanoyl(6-Me)}-[Dab]T[dOrn][Dab][Dab][dF]L[Dab][Dab]T; lactam 4-C)	0.125 (≈ 0.104 µM)	1 (≈ 0.831 µM)	0.125 (≈ 0.104 µM)	0.03 (≈ 0.0249 µM)	0.06 (≈ 0.0499 µM)	0.25 (≈ 0.208 µM)	0.03 (≈ 0.0249 µM)	0.06 (≈ 0.0499 µM)	316 ± 6.7 (≈ 262 µM)
CC(C)CCCCC(=O)N[C@@H](CCN)C(=O)N[C@H](C(=O)N[C@@H](CN)C(=O)N[C@H]1CCNC(=O)[C@H]([C@@H](C)O)NC(=O)[C@H](CCN)NC(=O)[C@H](CCN)NC(=O)[C@H]([C@@H](C)OCS(=O)(=O)O)NC(=O)[C@@H](Cc2ccccc2)NC(=O)[C@H](CCN)NC1=O)[C@@H](C)O [Compound 114, 6-methylheptanoyl-Dab-Thr-Dap-ring(4-10)[Dab-Dab-D-Phe-Thr(CH2SO3H)-Dab-Dab-Thr]] ({Heptanoyl(6-Me)}-[Dab]T[Dap][Dab][Dab][dF]T(Sulfomethyl)[Dab][Dab]T; lactam 4-C)	0.125 (≈ 0.0994 µM)	0.25 (≈ 0.199 µM)	0.06 (≈ 0.0477 µM)	0.03 (≈ 0.0239 µM)	0.125 (≈ 0.0994 µM)	0.25 (≈ 0.199 µM)	0.03 (≈ 0.0239 µM)	0.06 (≈ 0.0477 µM)	> 500
CC(C)CCCCC(=O)N[C@@H](CCN)C(=O)N[C@H](C(=O)N[C@H](CO)C(=O)N[C@H]1CCNC(=O)[C@H]([C@@H](C)O)NC(=O)[C@H](CCN)NC(=O)[C@H](CCN)NC(=O)[C@H]([C@@H](C)O)NC(=O)[C@@H](Cc2ccc(CS(=O)(=O)O)cc2)NC(=O)[C@H](CCN)NC1=O)[C@@H](C)O [Compound 107, 6-methylheptanoyl-Dab-Thr-D-Ser-ring(4-10)[Dab-Dab-D-Phe(4-CH2SO3H)-Thr-Dab-Dab-Thr]] ({Heptanoyl(6-Me)}-[Dab]T[dS][Dab][Dab][X3]T[Dab][Dab]T; lactam 4-C)	0.125 (≈ 0.0993 µM)	0.25 (≈ 0.199 µM)	0.06 (≈ 0.0477 µM)	0.03 (≈ 0.0238 µM)	0.125 (≈ 0.0993 µM)	0.25 (≈ 0.199 µM)	0.03 (≈ 0.0238 µM)	0.06 (≈ 0.0477 µM)	> 500
CCCCCCCC(=O)N[C@@H](CCN)C(=O)N[C@H](C(=O)N[C@H](CO)C(=O)N[C@H]1CCNC(=O)[C@H]([C@@H](C)O)NC(=O)[C@H](CCCN)NC(=O)[C@H](CCN)NC(=O)[C@H]([C@@H](C)O)NC(=O)[C@@H](Cc2ccccc2)NC(=O)[C@H](CCN)NC1=O)[C@@H](C)O [Compound 88, Octanoyl-Dab-Thr-D-Ser-ring(4-10)[Dab-Dab-D-Phe-Thr-Dab-Orn-Thr]] (Octanoyl-[Dab]T[dS][Dab][Dab][dF]T[Dab][Orn]T; lactam 4-C)	0.5 (≈ 0.424 µM)	64 (≈ 54.3 µM)	0.06 (≈ 0.0509 µM)	0.03 (≈ 0.0255 µM)	0.25 (≈ 0.212 µM)	>64	0.03 (≈ 0.0255 µM)	≤0.03	> 500
CCCCCCC(=O)N[C@@H](CCCN)C(=O)N[C@H](C(=O)N[C@H](CO)C(=O)N[C@H]1CCNC(=O)[C@H]([C@@H](C)O)NC(=O)[C@H](CCN)NC(=O)[C@H](CCN)NC(=O)[C@H]([C@@H](C)O)NC(=O)[C@@H](Cc2ccccc2)NC(=O)[C@H](CCN)NC1=O)[C@@H](C)O [Compound 59, Heptanoyl-Orn-Thr-D-Ser-ring(4-10)[Dab-Dab-D-Phe-Thr-Dab-Dab-Thr]] (Heptanoyl-[Orn]T[dS][Dab][Dab][dF]T[Dab][Dab]T; lactam 4-C)	0.5 (≈ 0.429 µM)	8 (≈ 6.87 µM)	0.25 (≈ 0.215 µM)	0.25 (≈ 0.215 µM)	0.25 (≈ 0.215 µM)	64 (≈ 55 µM)	0.25 (≈ 0.215 µM)	0.25 (≈ 0.215 µM)	> 500
CCCCCCC(=O)N[C@@H](CCN)C(=O)N[C@H](C(=O)N[C@H](CN)C(=O)N[C@H]1CCNC(=O)[C@H]([C@@H](C)O)NC(=O)[C@H](CCN)NC(=O)[C@H](CCN)NC(=O)[C@H]([C@@H](C)O)NC(=O)[C@@H](Cc2ccccc2)NC(=O)[C@H](CCN)NC1=O)[C@@H](C)O [Compound 4, Heptanoyl-Dab-Thr-D-Dap-ring(4-10)[Dab-Dab-D-Phe-Thr-Dab-Dab-Thr]] (Heptanoyl-[Dab]T[dDap][Dab][Dab][dF]T[Dab][Dab]T; lactam 4-C)	0.03 (≈ 0.0261 µM)	0.25 (≈ 0.218 µM)	0.03 (≈ 0.0261 µM)	0.03 (≈ 0.0261 µM)	0.03 (≈ 0.0261 µM)	0.03 (≈ 0.0261 µM)	0.03 (≈ 0.0261 µM)	0.03 (≈ 0.0261 µM)	> 500
CCCCCCCCC(=O)N[C@@H](CCN)C(=O)N[C@H](C(=O)N[C@H](CCCN)C(=O)N[C@H]1CCNC(=O)[C@H]([C@@H](C)O)NC(=O)[C@H](CCN)NC(=O)[C@H](CCN)NC(=O)[C@H](CC(C)C)NC(=O)[C@@H](Cc2ccccc2)NC(=O)[C@H](CCN)NC1=O)[C@@H](C)O [Compound 45, Nonanoyl-Dab-Thr-D-Orn-ring(4-10)[Dab-Dab-D-Phe-Leu-Dab-Dab-Thr]] (Nonanoyl-[Dab]T[dOrn][Dab][Dab][dF]L[Dab][Dab]T; lactam 4-C)	0.125 (≈ 0.103 µM)	2 (≈ 1.64 µM)	0.125 (≈ 0.103 µM)	0.06 (≈ 0.0493 µM)	0.06 (≈ 0.0493 µM)	0.5 (≈ 0.411 µM)	0.06 (≈ 0.0493 µM)	0.06 (≈ 0.0493 µM)	139 ± 6.7 (≈ 114 µM)
CCCCCCC(=O)N[C@@H](CCN)C(=O)N[C@H](C(=O)N[C@H](CO)C(=O)N[C@H]1CCNC(=O)[C@H]([C@@H](C)O)NC(=O)[C@H](CCN)NC(=O)[C@H](CCN)NC(=O)[C@H]([C@@H](C)O)NC(=O)[C@@H](Cc2ccccc2)NC(=O)[C@H](CCCN)NC1=O)[C@@H](C)O [Compound 69, Heptanoyl-Dab-Thr-D-Ser-ring(4-10)[Dab-Orn-D-Phe-Thr-Dab-Dab-Thr]] (Heptanoyl-[Dab]T[dS][Dab][Orn][dF]T[Dab][Dab]T; lactam 4-C)	0.5 (≈ 0.429 µM)	8 (≈ 6.87 µM)	0.25 (≈ 0.215 µM)	0.5 (≈ 0.429 µM)	0.25 (≈ 0.215 µM)	64 (≈ 55 µM)	0.5 (≈ 0.429 µM)	0.25 (≈ 0.215 µM)	> 500
CCCCCCC(=O)N[C@@H](CCN)C(=O)N[C@H](C(=O)N[C@H](CCCN)C(=O)N[C@H]1CCNC(=O)[C@H]([C@@H](C)O)NC(=O)[C@H](CCN)NC(=O)[C@H](CCN)NC(=O)[C@H]([C@@H](C)O)NC(=O)[C@@H](Cc2ccccc2)NC(=O)[C@H](CCN)NC1=O)[C@@H](C)O [Compound 24, Heptanoyl-Dab-Thr-D-Orn-ring(4-10)[Dab-Dab-D-Phe-Thr-Dab-Dab-Thr]] (Heptanoyl-[Dab]T[dOrn][Dab][Dab][dF]T[Dab][Dab]T; lactam 4-C)	0.125 (≈ 0.106 µM)	2 (≈ 1.7 µM)	0.125 (≈ 0.106 µM)	≤0.03	0.06 (≈ 0.051 µM)	0.5 (≈ 0.425 µM)	≤0.03	0.06 (≈ 0.051 µM)	> 500
